{
  "source": "patent US10724099B2",
  "about": "“Multiplex methods to assay mixed cell populations simultaneously” (The Broad Institute, Inc., priority 2012, dated 2020)",
  "key": {"[1]": {"target": "T1, full-length human aurora-A (Homo sapiens, UniProt O14965)", "T1 construct": "Full-length human aurora-A was assayed; purchased EMD Millipore KinaseProfiler service", "test": "In vitro kinase assay (EMD Millipore KinaseProfiler)", "assay_type": "biochemical", "settings": "10 μM γ-33P-ATP, 200 μM Kemptide, 8 doses in duplicate", "method": "In vitro kinase inhibition assays were then performed as follows. Incorporation of radioactivity from 10 μM γ-^33P-ATP was measured across 8 doses in duplicate by the EMD Millipore KinaseProfiler service (Billerica, Mass.) under published standard conditions with […]. Full-length human aurora-A was assayed with 200 μM LRRASLG (Kemptide); full-length human aurora-B with 30 μM […] (SEQ ID NO:5); and full-length human aurora-C with 30 μM […] (SEQ ID NO:6). IC50 values were modeled using least-squares and variable slope with Prism 6.0 software (GraphPad, San Diego, Calif.)."}, "JNK2": {"target": "T2, JNK2 (Homo sapiens, UniProt P45984)", "T2 construct": "purchased DiscoveRx scanEDGE panel (KinomeScan)", "T2 sequence (P45984 whole entry)": "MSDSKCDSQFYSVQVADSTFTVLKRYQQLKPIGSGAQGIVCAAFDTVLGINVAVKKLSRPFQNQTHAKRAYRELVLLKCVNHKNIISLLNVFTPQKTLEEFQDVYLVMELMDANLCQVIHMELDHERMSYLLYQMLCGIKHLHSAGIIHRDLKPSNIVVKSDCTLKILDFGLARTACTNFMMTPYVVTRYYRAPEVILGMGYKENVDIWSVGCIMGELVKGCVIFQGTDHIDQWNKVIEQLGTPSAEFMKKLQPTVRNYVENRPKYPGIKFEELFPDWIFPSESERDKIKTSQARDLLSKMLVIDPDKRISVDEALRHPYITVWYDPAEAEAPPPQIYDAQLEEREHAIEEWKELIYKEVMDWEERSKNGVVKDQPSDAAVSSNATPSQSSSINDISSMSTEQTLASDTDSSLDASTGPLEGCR", "test": "DiscoveRx KinomeScan binding", "settings": "Entrez MAPK9"}, "CDK7": {"target": "T3, CDK7 (Homo sapiens, UniProt P50613)", "T3 construct": "purchased DiscoveRx (KINOMEscan scanEDGE panel)", "T3 sequence (P50613 whole entry)": "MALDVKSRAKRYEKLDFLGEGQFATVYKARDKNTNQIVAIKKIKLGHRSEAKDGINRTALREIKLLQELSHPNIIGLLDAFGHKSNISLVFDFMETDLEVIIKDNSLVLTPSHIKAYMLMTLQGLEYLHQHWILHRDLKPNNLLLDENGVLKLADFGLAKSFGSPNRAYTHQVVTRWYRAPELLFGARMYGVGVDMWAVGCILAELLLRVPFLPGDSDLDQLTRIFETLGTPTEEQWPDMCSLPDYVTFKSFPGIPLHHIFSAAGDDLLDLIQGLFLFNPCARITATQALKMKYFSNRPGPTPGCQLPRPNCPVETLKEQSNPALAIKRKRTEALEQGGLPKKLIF", "test": "DiscoveRx KinomeScan binding"}, "ZAP70": {"target": "T4, ZAP70 (Homo sapiens, UniProt P43403)", "T4 construct": "purchased DiscoveRx (KinomeScan scanEDGE panel service)", "T4 sequence (P43403 whole entry)": "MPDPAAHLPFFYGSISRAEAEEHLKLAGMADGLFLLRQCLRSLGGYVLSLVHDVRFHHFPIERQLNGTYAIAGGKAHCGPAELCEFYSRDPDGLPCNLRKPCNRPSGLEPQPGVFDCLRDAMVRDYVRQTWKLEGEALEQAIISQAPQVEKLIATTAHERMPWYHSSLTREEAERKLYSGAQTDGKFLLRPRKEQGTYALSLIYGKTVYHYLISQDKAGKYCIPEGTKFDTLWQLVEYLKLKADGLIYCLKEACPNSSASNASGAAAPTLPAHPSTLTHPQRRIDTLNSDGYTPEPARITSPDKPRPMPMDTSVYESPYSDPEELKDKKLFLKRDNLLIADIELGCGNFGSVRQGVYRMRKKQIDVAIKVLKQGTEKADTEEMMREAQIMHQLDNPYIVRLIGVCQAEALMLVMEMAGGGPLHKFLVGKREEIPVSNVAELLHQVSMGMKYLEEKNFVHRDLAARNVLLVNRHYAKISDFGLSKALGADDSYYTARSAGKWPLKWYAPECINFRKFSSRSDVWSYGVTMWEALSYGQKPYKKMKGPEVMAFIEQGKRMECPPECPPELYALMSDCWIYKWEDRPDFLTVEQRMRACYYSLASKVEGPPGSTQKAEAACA", "test": "DiscoveRx KinomeScan binding"}, "PIM3": {"target": "T5, PIM3 (Homo sapiens, UniProt Q86V86)", "T5 construct": "purchased DiscoveRx scanEDGE panel", "test": "DiscoveRx KinomeScan binding"}, "AKT2": {"target": "T6, AKT2 (Homo sapiens, UniProt P31751)", "T6 construct": "purchased DiscoveRx (KINOMEscan scanEDGE panel)", "test": "DiscoveRx KinomeScan binding"}, "AURKC": {"target": "T7, AURKC (Homo sapiens, UniProt Q9UQB9)", "T7 construct": "purchased DiscoveRx (KINOMEscan; added to the scanEDGE panel)", "T7 sequence (Q9UQB9 whole entry)": "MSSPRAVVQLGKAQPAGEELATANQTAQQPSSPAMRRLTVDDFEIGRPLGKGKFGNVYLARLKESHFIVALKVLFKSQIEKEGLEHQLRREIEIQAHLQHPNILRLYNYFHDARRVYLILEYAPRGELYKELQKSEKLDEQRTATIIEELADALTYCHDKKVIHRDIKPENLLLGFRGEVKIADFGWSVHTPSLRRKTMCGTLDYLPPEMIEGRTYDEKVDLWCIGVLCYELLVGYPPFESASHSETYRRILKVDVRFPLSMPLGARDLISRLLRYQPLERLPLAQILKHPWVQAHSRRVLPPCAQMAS", "test": "DiscoveRx KinomeScan binding"}, "AKT1": {"target": "T8, AKT1 (Homo sapiens, UniProt P31749)", "T8 construct": "purchased DiscoveRx (KINOMEscan scanEDGE panel)", "T8 sequence (P31749 whole entry)": "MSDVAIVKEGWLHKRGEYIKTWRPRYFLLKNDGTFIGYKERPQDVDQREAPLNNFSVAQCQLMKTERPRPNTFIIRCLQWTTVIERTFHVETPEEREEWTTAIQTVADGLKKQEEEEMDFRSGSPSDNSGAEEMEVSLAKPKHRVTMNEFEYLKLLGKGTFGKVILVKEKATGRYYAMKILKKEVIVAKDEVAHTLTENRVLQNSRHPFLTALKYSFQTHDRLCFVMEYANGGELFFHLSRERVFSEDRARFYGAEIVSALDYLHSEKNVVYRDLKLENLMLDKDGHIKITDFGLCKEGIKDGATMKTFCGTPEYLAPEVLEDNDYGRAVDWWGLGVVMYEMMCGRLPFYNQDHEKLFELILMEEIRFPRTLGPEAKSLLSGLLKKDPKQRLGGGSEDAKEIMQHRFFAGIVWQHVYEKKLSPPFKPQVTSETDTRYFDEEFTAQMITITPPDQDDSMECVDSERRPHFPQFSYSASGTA", "test": "DiscoveRx KinomeScan binding"}, "MEK1": {"target": "T9, MEK1 (Homo sapiens, UniProt Q02750)", "T9 construct": "purchased DiscoveRx scanEDGE panel (KinomeScan)", "test": "DiscoveRx KinomeScan binding", "settings": "Entrez MAP2K1"}, "PRKCE": {"target": "T10, PRKCE (Homo sapiens, UniProt Q02156)", "T10 construct": "purchased DiscoveRx scanEDGE panel", "test": "DiscoveRx KinomeScan binding"}, "ERBB2": {"target": "T11, ERBB2 (Homo sapiens, UniProt P04626)", "T11 construct": "purchased DiscoveRx scanEDGE panel", "test": "DiscoveRx KinomeScan binding"}, "PCTK1": {"target": "T12, PCTK1 (Homo sapiens, UniProt Q00536)", "T12 construct": "purchased DiscoveRx scanEDGE panel (KinomeScan)", "T12 sequence (Q00536 whole entry)": "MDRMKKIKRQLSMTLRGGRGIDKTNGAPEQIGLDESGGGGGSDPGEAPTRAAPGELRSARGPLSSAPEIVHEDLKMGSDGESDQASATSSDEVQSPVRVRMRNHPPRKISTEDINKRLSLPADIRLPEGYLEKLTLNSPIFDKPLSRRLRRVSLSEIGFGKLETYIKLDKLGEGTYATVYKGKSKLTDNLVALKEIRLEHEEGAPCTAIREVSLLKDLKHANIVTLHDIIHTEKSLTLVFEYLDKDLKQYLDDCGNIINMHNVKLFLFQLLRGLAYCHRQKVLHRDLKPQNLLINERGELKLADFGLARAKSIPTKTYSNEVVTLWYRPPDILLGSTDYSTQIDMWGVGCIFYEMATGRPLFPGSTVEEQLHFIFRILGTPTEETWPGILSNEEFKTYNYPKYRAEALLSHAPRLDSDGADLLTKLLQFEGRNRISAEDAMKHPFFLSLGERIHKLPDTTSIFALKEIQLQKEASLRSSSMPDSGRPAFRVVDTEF", "test": "DiscoveRx KinomeScan binding", "settings": "Entrez CDK16"}, "TRKA": {"target": "T13, TRKA (Homo sapiens, UniProt P04629)", "T13 construct": "purchased DiscoveRx scanEDGE panel", "T13 sequence (P04629 33-796)": "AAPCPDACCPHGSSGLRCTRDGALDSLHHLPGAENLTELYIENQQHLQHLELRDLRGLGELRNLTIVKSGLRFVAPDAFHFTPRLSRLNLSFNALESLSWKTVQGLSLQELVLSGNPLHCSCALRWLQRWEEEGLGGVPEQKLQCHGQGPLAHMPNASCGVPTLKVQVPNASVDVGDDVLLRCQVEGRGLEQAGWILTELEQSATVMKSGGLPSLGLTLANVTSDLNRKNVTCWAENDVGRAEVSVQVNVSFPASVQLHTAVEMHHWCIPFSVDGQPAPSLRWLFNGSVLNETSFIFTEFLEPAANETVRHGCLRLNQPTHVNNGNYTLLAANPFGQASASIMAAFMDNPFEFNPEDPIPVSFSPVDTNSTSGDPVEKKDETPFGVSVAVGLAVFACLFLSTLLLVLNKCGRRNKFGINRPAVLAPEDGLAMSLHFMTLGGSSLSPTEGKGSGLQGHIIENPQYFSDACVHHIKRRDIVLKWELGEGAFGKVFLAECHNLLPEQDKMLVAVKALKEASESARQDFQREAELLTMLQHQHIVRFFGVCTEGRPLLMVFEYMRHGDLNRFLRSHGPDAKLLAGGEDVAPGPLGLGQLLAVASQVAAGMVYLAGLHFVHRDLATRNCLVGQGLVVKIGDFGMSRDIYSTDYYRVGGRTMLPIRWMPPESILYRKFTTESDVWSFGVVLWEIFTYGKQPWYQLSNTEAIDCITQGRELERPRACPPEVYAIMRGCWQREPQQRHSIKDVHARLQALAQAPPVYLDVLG", "test": "DiscoveRx KinomeScan binding", "settings": "Entrez NTRK1"}, "ERBB4": {"target": "T14, ERBB4 (Homo sapiens, UniProt Q15303)", "T14 construct": "purchased DiscoveRx scanEDGE panel", "test": "DiscoveRx KinomeScan binding"}, "PIK3C2B": {"target": "T15, PIK3C2B (Homo sapiens, UniProt O00750)", "T15 construct": "purchased DiscoveRx scanEDGE panel (KinomeScan)", "test": "DiscoveRx KinomeScan binding"}, "SRPK3": {"target": "T16, SRPK3 (Homo sapiens, UniProt Q9UPE1)", "T16 construct": "purchased DiscoveRx scanEDGE panel", "test": "DiscoveRx KinomeScan binding"}, "GSK3B": {"target": "T17, GSK3B (Homo sapiens, UniProt P49841)", "T17 construct": "purchased DiscoveRx scanEDGE panel", "test": "DiscoveRx KinomeScan binding"}, "MEK2": {"target": "T18, MEK2 (Homo sapiens, UniProt P36507)", "T18 construct": "purchased DiscoveRx scanEDGE panel (KinomeScan)", "test": "DiscoveRx KinomeScan binding", "settings": "Entrez MAP2K2"}, "ABL1---phosphorylated": {"target": "T19, ABL1---phosphorylated (Homo sapiens, UniProt P00519)", "T19 construct": "purchased DiscoveRx (KINOMEscan scanEDGE panel)", "test": "DiscoveRx KinomeScan binding", "settings": "Entrez ABL1"}, "MAP3K4": {"target": "T20, MAP3K4 (Homo sapiens, UniProt Q9Y6R4)", "T20 construct": "purchased DiscoveRx scanEDGE panel (KinomeScan)", "test": "DiscoveRx KinomeScan binding"}, "PDGFRB": {"target": "T21, PDGFRB (Homo sapiens, UniProt P09619)", "T21 construct": "purchased DiscoveRx scanEDGE panel (KinomeScan)", "test": "DiscoveRx KinomeScan binding"}, "p38---alpha": {"target": "T22, p38---alpha (Homo sapiens, UniProt Q16539)", "T22 construct": "purchased DiscoveRx scanEDGE panel (KinomeScan)", "test": "DiscoveRx KinomeScan binding", "settings": "Entrez MAPK14"}, "CSNK1G2": {"target": "T23, CSNK1G2 (Homo sapiens, UniProt P78368)", "T23 construct": "purchased DiscoveRx scanEDGE panel", "test": "DiscoveRx KinomeScan binding"}, "102 barcoded cell lines": {"tested_on": "102 barcoded cell lines", "test": "PRISM, 102 barcoded cell lines in pools", "assay_type": "cell-based", "settings": "102 cell lines", "source_text": "PRISM was used to identify novel anticancer compounds, using a set of 102 barcoded cell lines including 90 non-small cell lung adenocarcinoma lines (and 2 duplicate lines with different barcode labels) and 10 remaining cell lines representing other tissues of origins.\nUsing the AUC for each cell line's response to BRD-7880, a PRISM “activity profile” was created to query whether the sensitivity pattern of BRD-7880 across the cell line panel was related to any of the tool compounds assayed in parallel. […] Thus it was hypothesized that BRD-7880 was functioning as an inhibitor of aurora kinases."}, "PAK2": {"target": "T24, PAK2 (Homo sapiens, UniProt Q13177)", "T24 construct": "purchased DiscoveRx scanEDGE panel (KinomeScan)", "T24 sequence (Q13177 whole entry)": "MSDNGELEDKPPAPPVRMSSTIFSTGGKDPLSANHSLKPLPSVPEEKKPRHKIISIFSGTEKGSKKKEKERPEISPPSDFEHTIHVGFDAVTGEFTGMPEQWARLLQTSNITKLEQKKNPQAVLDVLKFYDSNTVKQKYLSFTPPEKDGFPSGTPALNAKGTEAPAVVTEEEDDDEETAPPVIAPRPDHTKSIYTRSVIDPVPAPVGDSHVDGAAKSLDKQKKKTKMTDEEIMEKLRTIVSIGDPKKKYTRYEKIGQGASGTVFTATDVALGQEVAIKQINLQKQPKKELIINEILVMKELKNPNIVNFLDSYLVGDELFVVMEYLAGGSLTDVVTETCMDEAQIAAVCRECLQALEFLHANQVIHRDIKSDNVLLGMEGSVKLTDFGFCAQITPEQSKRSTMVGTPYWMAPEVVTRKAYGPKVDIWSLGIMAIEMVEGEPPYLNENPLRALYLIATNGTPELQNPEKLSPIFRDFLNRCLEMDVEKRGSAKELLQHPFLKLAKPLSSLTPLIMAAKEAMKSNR", "test": "DiscoveRx KinomeScan binding"}, "FAK": {"target": "T25, FAK (Homo sapiens, UniProt Q05397)", "T25 construct": "purchased DiscoveRx scanEDGE panel", "test": "DiscoveRx KinomeScan binding", "settings": "Entrez PTK2"}, "RAF1": {"target": "T26, RAF1 (Homo sapiens, UniProt P04049)", "T26 construct": "purchased DiscoveRx scanEDGE panel", "test": "DiscoveRx KinomeScan binding"}, "CDK11": {"target": "T27, CDK11 (Homo sapiens, UniProt Q9BWU1)", "T27 construct": "purchased DiscoveRx (KINOMEscan scanEDGE panel)", "T27 sequence (Q9BWU1 whole entry)": "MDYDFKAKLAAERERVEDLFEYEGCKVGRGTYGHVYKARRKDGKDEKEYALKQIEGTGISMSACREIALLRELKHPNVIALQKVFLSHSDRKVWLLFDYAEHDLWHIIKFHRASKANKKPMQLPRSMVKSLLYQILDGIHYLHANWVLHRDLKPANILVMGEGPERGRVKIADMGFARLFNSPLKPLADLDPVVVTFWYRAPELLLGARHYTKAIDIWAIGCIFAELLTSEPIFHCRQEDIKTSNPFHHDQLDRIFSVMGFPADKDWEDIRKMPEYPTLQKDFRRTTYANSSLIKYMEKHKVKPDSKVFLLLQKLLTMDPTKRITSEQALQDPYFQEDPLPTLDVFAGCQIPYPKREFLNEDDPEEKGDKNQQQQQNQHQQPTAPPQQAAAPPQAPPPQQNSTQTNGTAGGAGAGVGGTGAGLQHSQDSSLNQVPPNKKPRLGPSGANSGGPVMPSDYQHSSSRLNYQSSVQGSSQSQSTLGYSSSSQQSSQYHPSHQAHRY", "test": "DiscoveRx KinomeScan binding", "settings": "Entrez CDK19"}, "TGFBR1": {"target": "T28, TGFBR1 (Homo sapiens, UniProt P36897)", "T28 construct": "purchased DiscoveRx scanEDGE panel", "test": "DiscoveRx KinomeScan binding"}, "ACVR1B": {"target": "T29, ACVR1B (Homo sapiens, UniProt P36896)", "T29 construct": "purchased DiscoveRx (KINOMEscan scanEDGE panel)", "T29 sequence (P36896 24-505)": "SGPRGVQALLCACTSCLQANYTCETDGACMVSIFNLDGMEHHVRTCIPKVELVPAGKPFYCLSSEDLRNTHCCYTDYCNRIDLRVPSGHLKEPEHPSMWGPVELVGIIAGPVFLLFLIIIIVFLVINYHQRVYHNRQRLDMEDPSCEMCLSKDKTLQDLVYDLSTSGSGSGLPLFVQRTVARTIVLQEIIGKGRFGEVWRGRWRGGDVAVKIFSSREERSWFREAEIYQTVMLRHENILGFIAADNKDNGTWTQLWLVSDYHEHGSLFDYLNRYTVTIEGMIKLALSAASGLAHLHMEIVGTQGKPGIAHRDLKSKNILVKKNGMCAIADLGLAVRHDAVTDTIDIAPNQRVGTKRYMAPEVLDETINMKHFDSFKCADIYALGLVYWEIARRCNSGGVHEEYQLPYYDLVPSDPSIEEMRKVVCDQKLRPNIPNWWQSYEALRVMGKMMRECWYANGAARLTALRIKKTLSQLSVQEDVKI", "test": "DiscoveRx KinomeScan binding"}, "MAPKAPK2": {"target": "T30, MAPKAPK2 (Homo sapiens, UniProt P49137)", "T30 construct": "purchased DiscoveRx scanEDGE panel (KinomeScan)", "test": "DiscoveRx KinomeScan binding"}, "308 kinases": {"tested_on": "308 kinases", "test": "Kinase activity profiling, Millipore KinaseProfiler", "assay_type": "biochemical"}, "YANK3": {"target": "T31, YANK3 (Homo sapiens, UniProt Q86UX6)", "T31 construct": "purchased DiscoveRx (KinomeScan scanEDGE panel service)", "test": "DiscoveRx KinomeScan binding", "settings": "Entrez STK32C"}, "BRAF": {"target": "T32, BRAF (Homo sapiens, UniProt P15056)", "T32 construct": "purchased DiscoveRx (KINOMEscan scanEDGE panel)", "test": "DiscoveRx KinomeScan binding"}},
  "data": [
    {"smiles": "COc1ccc(NC(=O)Nc2ccc3c(c2)C(=O)N([C@@H](C)CO)C[C@H](C)[C@H](CN(C)Cc2ccc4c(c2)OCO4)O3)cc1", "note": "[BRD-7880]", "values": [
      {"measurement": "IC50", "setting": "[1]", "result": 2.15, "unit": "µM"},
      {"measurement": "Percent Control", "setting": "JNK2", "result": 89, "unit": "%"},
      {"measurement": "Percent Control", "setting": "CDK7", "result": 77, "unit": "%"},
      {"measurement": "Percent Control", "setting": "ZAP70", "result": 93, "unit": "%"},
      {"measurement": "Percent Control", "setting": "PIM3", "result": 72, "unit": "%"},
      {"measurement": "Percent Control", "setting": "AKT2", "result": 80, "unit": "%"},
      {"measurement": "binding to aurora kinase C", "setting": "AURKC", "result": "3 % of control"},
      {"measurement": "Percent Control", "setting": "AURKC; AURKC", "result": 3, "unit": "%"},
      {"measurement": "Percent Control", "setting": "AKT1", "result": 87, "unit": "%"},
      {"measurement": "Percent Control", "setting": "MEK1", "result": 71, "unit": "%"},
      {"measurement": "Percent Control", "setting": "PRKCE", "result": 100, "unit": "%"},
      {"measurement": "Percent Control", "setting": "ERBB2", "result": 100, "unit": "%"},
      {"measurement": "Percent Control", "setting": "PCTK1", "result": 95, "unit": "%"},
      {"measurement": "Percent Control", "setting": "TRKA", "result": 84, "unit": "%"},
      {"measurement": "Percent Control", "setting": "ERBB4", "result": 97, "unit": "%"},
      {"measurement": "Percent Control", "setting": "PIK3C2B", "result": 96, "unit": "%"},
      {"measurement": "Percent Control", "setting": "SRPK3", "result": 100, "unit": "%"},
      {"measurement": "Percent Control", "setting": "GSK3B", "result": 94, "unit": "%"},
      {"measurement": "Percent Control", "setting": "MEK2", "result": 73, "unit": "%"},
      {"measurement": "Percent Control", "setting": "ABL1---phosphorylated", "result": 88, "unit": "%"},
      {"measurement": "Percent Control", "setting": "MAP3K4", "result": 86, "unit": "%"},
      {"measurement": "Percent Control", "setting": "PDGFRB", "result": 100, "unit": "%"},
      {"measurement": "Percent Control", "setting": "p38---alpha", "result": 93, "unit": "%"},
      {"measurement": "Percent Control", "setting": "CSNK1G2", "result": 100, "unit": "%"},
      {"measurement": "cell lines with AUC<0.5 (selectivity)", "setting": "102 barcoded cell lines; 8 doses 0.25-32 μM", "result": "12 of 102"},
      {"measurement": "EC50", "setting": "102 barcoded cell lines", "result": "~1", "unit": "µM"},
      {"measurement": "Percent Control", "setting": "PAK2", "result": 69, "unit": "%"},
      {"measurement": "Percent Control", "setting": "FAK", "result": 100, "unit": "%"},
      {"measurement": "Percent Control", "setting": "RAF1", "result": 100, "unit": "%"},
      {"measurement": "Percent Control", "setting": "CDK11", "result": 43, "unit": "%"},
      {"measurement": "Percent Control", "setting": "TGFBR1", "result": 100, "unit": "%"},
      {"measurement": "Percent Control", "setting": "ACVR1B", "result": 84, "unit": "%"},
      {"measurement": "Percent Control", "setting": "MAPKAPK2", "result": 80, "unit": "%"},
      {"measurement": "significant inhibition (defined as activity<25% control) across 308 kinases", "setting": "308 kinases", "result": "inhibited aurora kinase B"},
      {"measurement": "Percent Control", "setting": "YANK3", "result": 91, "unit": "%"},
      {"measurement": "Percent Control", "setting": "BRAF", "result": 70, "unit": "%"}
    ]}
  ]
}
